# Laboratory results taken from US7994219B2, “Approach to anti-microbial host defense with molecular shields with lipoxin compounds” (The Brigham and Women's Hospital, Inc., priority 2001, dated 2011).
# Assays:
# BPI [1] = test: RT-PCR of BPI transcript in OKF6, T84 and Caco2 epithelial cells; type: cell-based, human
# BPI [2] = test: Semi-quantitative RT-PCR of BPI transcript in KB cells; type: cell-based, human
# Salmonella typhimurium = test: Bacterial killing assay: adherent Caco2 cells with Salmonella typhimurium (CFU); type: cell-based; details: Caco2 pre-exposure to 1 μM ATLa, 24 hr; killing over 60 min
# Procedure: Salmonella typhimurium (strain 14028 from American Type Culture Collection, Rockville, Md.) were cultured and grown in Luria broth as previously described (22). In subsets of experiments, Enterococcus faecalis (strain PCI 1326 from American Type Culture Collection, Rockville, Md.) were cultured as previously described (23). Caco2 epithelial cells were grown to confluence of 60 mm petri dishes and exposed to indicated experimental conditions. Cells were washed once with HBSS, and washed bacteria were added to epithelial monolayers at a ratio of 50 bacteria per adherent epithelial cell. Incubations were allowed to proceed for 90 minutes or as indicated on a rotating platform. Parallel samples omitting epithelial cells were used as controls. Following incubation, supernatants were collected and epithelial cells were hypotonically lysed with 1 ml ice cold water. Bacteria were pelleted, dilutions of both pellets and supernatants were plated, incubated overnight at 37° C., and colony counts were performed. In subsets of experiments, anti-BPI antisera (1:300 in HBSS) or anti-BPI antisera pre-adsorbed with rBPI (1:300 in HBSS), as indicated, were added 30 minutes prior to incubation with bacteria. Data are presented as the mean±S.E.M. CFU.
# BPI [3] = test: Confocal microscopy of surface BPI on non-permeabilized Caco2 cells; type: cell-based, human; details: 1 μM for 24 hr
# Procedure: OKF6 or Caco2 cells were grown to confluence on acid washed 12 mm glass coverslips. Monolayers were exposed to indicated experimental conditions, washed once in phosphate buffered saline, and fixed for 10 minutes at room temperature in 1% paraformaldehyde in cacodylate buffer (0.1M sodium cacodylate; pH 7.4, 0.72% sucrose). After washing twice with PBS, the cells were incubated for 1 hour with rabbit polyclonal BPI antisera (1:300 dilution) or control sera (equivalent dilution depleted of specific antibody through 3 consecutive adsorptions with sepharose beads covalently linked to rBPI via cyanogens bromide coupling, kit from Pierce Chemical Co., Rockford, Ill.). After washing, the monolayers were incubated with goat anti-rabbit Oregon Green (1 μg/ml, Molecular Probes, Eugene, Oreg.). Cells were imaged on a BioRad MRC-600 confocal fluorescence microscope.
# BPI [4] = test: Quantitative genechip microarray transcriptional profile of KB epithelial cells exposed to ATLa; type: cell-based, human; details: 1 μM ATLa
# bacteria = test: Direct incubation of ATLa or anti-BPI with bacteria and colony counts; type: cell-based; details: direct incubation with bacteria, no epithelial cells; data not shown
# BPI [5] = test: Immunoprecipitation of biotinylated plasma membrane protein and avidin blot for surface BPI in T84 cells; type: cell-based, human; details: 1 μM ATLa, at 36 h
# Procedure: Epithelial cells were grown to confluence on 45 cm^2 permeable supports, and exposed to ATLa or vehicle (0.01% EtOH), as indicated. Cells were washed extensively in HBSS, cooled to 4° C., and extracellular proteins were biotinylated (1 mM NHS-biotin (Pierce Chemical Co., Rockford, Ill.) in HBSS) as previously described (18). Plasma membranes were isolated using nitrogen cavitation (200 psi, 8 min., 4° C.) as previously described (18). Recombinant human BPI (100 ng/ml, was directly biotinylated and excess biotin was removed by multiple washes on a 5 kD cut-off membrane filter (Amicon, Beverly Mass.). Fractions were pre-cleared with 50 μl pre-equilibrated protein-G sepharose (Pharmacia, Uppsala Sweden). Immunoprecipitation of BPI was performed with goat polyclonal anti-BPI followed by addition of 50 μl pre-equilibrated protein-G sepharose and overnight incubation. Washed immunoprecipitates were boiled in non-reducing sample buffer (2.5% SDS, 0.38 M Tris pH 6.8, 20% glycerol, and 0.1% bromophenol blue), resolved by non-reducing SDS-PAGE (18% polyacrylamide gel), transferred to nitrocellulose, and blocked overnight in blocking buffer. Biotinylated proteins were labeled with streptavidin-peroxidase (Pierce Chemical Co., Rockford, Ill.) and visualized by enhanced chemiluminescence (ECL; Amersham, Arlington Heights, Ill.).
molecule,measurement,setting,value
pertussis toxin [reference compound],decrease in BPI induction by ATLa,"BPI [1]; Caco2 pre-exposure to pertussis toxin 1 μM, 30 min, ATLa 1 μM, 18 h",65%
"CCCCCC/C=C/C=C/C=C/C=C/[C@@H](O)[C@@H](O)CCCC(=O)O [15-deoxy-LXA4, reference compound]",induction of BPI at the mRNA level,"BPI [2]; epithelial exposure to similar concentrations as ATLa, data not shown",no induction
"O=C(O)CCC[C@H](O)[C@H](O)/C=C/C=C/C=C\C=C\[C@@H](O)COc1ccc(F)cc1 [ATLa, 15-epi-16-(para-fluoro)-phenoxy-LXA4]",increase in killing of S. typhimurium,Salmonella typhimurium,~60%
same,BPI induction relative to β-actin,"BPI [1]; OKF6, T84 and Caco2 cells, 1 μM, 26 cycles of PCR",prominent pattern of time-dependent BPI induction
same,surface-bound BPI expression,BPI [3],increased expression
same,maximal increase of BPI transcript relative to β-actin by densitometry,"BPI [2]; KB cells, 1 μM, 8 h, compared to vehicle control",4.3 fold
same,EC50,"BPI [2]; KB cells, 8 hr, 28 cycles of PCR, approximate, read-out: EC50 of BPI transcript induction (dose response)",~50 nM
same,BPI mRNA increase over control (microarray),BPI [4]; 4 hrs exposure,3.2 fold
same,BPI mRNA increase over control (microarray),BPI [4]; 8 hrs exposure,2.9 fold
same,direct bactericidal activity or non-specific agglutination,bacteria,not explained by bactericidal activity or non-specific agglutination
same,maximal increase of ~55 kDa surface protein consistent with BPI by densitometry,BPI [5],12.5 fold
